Reference: US12533384B2, “Lactobacillus reuteri CCFM1132 capable of relieving hyperuricemia and application thereof” (Jiangnan University, priority 2020, dated 2026)

System: mice with hyperuricemia
Assay: Serum creatinine of mice with hyperuricemia (Mindray BS480 biochemical analyzer)
Assay type: in vivo, KunMing mice
Conditions: 5 mg/kg BW by intragastric administration
Procedure: 24 healthy male KunMing mice with the weight of 24 to 32 g were randomly divided into four groups after a week of acclimatization, namely a control group, a hyperuricemia model group, an L. reuteri CCFM1132 intervention group and an allopurinol intervention group (allopurinol). Except the control group, 500 mg/kg BW hypoxanthine was given to the other groups every day by intragastric administration, and 200 mg/kg BW oteracil potassium was intraperitoneally injected to the other groups 1 h later. At 1 h before processing with oteracil potassium, 100 g/L skim milk was given to the control group and the hyperuricemia model group, L. reuteri CCFM1132 with the concentration of 1.0×10^9 CFU/mouse was given to the L. reuteri CCFM1132 intervention group, and 5 mg/kg BW allopurinol was given to the allopurinol group.
At the end of the experiment, fresh feces of the mice was collected and frozen at −80° C. After the experiment was finished, the mice were subjected to fasting but free for drinking water for 12 h. 0.1 mL/10 g of […] pentobarbital sodium solution was intraperitoneally injected for anesthetization. […] The serum uric acid levels were determined by using a kit method.
Experimental animal groups and processing methods are the same as those of Example 3, and serum creatinine was detected by using a Mindray BS480 biochemical analyzer according to a kit method.

For `Oc1ncnc2[nH]ncc12` [allopurinol], the “serum creatinine reducing effect” value was “does not have the reducing effect”.
